Legend:
[1] = biological target: Nucleosome-remodeling factor subunit BPTF (Homo sapiens, UniProt Q12830); experiment: Selectivity interaction (Human bromodomain panel (DSF assay)) EUB0000233b BPTF
[2] = biological target: Bromodomain-containing protein 9 (Homo sapiens) (UniProt Q9H8M2); experiment: Selectivity interaction (Human bromodomain panel (DSF assay)) EUB0000233b BRD9
[3] = biological target: Myosin-IIIa (Homo sapiens) (UniProt Q8NEV4); experiment: Selectivity interaction (KinomeScan (DiscoverX)) EUB0000229b MYO3A; conditions: at 10 µM
[4] = biological target: Cyclin-dependent kinase 16 (Homo sapiens) (UniProt Q00536); conditions: at 10 µM
Chain of Cyclin-dependent kinase 16 (Homo sapiens) (Q00536 whole entry): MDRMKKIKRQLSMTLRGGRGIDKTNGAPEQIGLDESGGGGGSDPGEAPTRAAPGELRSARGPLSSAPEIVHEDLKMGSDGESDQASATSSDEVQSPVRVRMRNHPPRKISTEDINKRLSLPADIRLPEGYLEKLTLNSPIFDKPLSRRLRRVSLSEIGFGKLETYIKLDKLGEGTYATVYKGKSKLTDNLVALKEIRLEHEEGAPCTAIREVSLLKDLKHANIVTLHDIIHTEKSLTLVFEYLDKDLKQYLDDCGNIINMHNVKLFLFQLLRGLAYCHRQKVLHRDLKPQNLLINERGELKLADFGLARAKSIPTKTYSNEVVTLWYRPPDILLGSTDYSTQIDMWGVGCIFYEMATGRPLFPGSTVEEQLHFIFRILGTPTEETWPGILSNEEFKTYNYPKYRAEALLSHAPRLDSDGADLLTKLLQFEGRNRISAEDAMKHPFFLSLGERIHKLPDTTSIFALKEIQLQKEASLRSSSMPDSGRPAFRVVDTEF

[5] = biological target: T1, Calcium/calmodulin-dependent protein kinase type IV (Homo sapiens) (UniProt Q16566); experiment: Selectivity interaction (Kinase panel (DSF assay)) EUB0001559a CAMK4
T1 sequence (whole entry): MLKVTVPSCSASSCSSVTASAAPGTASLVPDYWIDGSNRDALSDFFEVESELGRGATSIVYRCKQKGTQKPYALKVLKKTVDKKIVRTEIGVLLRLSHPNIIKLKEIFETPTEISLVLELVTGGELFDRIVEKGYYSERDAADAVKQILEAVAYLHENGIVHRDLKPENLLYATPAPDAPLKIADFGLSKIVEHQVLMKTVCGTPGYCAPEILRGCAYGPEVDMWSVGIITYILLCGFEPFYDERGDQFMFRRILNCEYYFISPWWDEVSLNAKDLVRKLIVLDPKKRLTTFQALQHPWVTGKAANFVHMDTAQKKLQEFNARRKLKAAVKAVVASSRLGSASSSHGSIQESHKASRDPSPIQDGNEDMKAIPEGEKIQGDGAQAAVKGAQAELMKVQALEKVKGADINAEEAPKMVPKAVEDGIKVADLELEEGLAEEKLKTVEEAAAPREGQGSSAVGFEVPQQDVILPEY

[6] = biological target: Serine/threonine-protein kinase PAK 6 (Homo sapiens) (UniProt Q9NQU5); experiment: Selectivity interaction (ProQinase) EUB0000171b PAK6; conditions: at 5 µM
Chain of Serine/threonine-protein kinase PAK 6 (Homo sapiens) (Q9NQU5 whole entry, looked up): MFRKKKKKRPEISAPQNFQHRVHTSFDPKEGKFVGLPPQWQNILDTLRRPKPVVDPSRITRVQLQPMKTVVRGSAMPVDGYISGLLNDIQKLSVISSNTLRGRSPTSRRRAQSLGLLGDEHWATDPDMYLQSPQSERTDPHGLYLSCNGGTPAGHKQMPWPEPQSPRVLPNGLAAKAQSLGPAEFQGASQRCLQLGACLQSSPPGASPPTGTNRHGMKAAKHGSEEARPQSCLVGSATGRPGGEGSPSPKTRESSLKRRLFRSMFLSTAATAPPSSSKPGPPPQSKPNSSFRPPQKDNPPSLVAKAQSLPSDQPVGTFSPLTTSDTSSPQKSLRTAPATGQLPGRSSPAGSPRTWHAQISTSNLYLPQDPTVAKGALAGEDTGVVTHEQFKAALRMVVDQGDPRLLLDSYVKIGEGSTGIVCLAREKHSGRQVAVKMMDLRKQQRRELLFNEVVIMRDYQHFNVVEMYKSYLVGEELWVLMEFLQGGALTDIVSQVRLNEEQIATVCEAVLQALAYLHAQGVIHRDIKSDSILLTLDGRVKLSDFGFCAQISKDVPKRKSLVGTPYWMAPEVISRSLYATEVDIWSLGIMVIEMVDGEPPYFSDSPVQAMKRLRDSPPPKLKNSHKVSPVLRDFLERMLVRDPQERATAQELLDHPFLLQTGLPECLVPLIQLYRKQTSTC

[7] = biological target: T2, NUAK family SNF1-like kinase 1 (Homo sapiens) (UniProt O60285); experiment: Selectivity interaction (KinomeScan (DiscoverX)) EUB0001619a NUAK1; conditions: at 1 µM
T2 sequence (whole entry): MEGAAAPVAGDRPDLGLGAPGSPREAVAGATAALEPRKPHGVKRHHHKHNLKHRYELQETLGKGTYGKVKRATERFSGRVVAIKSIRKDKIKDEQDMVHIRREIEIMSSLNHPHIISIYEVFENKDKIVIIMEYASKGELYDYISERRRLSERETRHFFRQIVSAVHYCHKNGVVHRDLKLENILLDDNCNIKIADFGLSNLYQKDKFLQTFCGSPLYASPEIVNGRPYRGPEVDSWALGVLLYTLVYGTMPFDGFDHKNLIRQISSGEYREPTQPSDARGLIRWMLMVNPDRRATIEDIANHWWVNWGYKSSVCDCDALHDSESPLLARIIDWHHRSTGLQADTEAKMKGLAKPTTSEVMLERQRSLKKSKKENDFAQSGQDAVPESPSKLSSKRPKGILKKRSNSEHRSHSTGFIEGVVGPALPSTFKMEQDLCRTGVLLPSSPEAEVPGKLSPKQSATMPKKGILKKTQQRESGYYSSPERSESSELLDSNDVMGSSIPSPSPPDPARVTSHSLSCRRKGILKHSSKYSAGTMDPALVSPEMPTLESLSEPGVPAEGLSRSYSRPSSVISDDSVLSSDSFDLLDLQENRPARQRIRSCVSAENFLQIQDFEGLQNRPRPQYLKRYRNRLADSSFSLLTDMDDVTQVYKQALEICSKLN

[8] = biological target: T3, N-lysine methyltransferase KMT5A (Homo sapiens) (UniProt Q9NQR1); experiment: Selectivity interaction (Methyltransferase screen (Scintillation proximity assays)) EUB0000255b SETD8
T3 sequence (whole entry): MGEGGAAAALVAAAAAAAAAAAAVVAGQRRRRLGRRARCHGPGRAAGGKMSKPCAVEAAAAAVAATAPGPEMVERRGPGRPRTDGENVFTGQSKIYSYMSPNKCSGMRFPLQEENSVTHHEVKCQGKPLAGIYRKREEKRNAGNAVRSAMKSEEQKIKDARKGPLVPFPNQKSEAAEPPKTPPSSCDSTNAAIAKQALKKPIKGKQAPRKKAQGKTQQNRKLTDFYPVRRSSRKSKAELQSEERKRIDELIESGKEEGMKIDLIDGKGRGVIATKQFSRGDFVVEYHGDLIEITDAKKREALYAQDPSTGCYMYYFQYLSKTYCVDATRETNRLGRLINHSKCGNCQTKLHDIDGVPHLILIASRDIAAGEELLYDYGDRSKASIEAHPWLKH

[9] = biological target: Tyrosine-protein kinase receptor Tie-1 (Homo sapiens) (UniProt P35590); experiment: Selectivity interaction (KinomeScan (DiscoverX)) EUB0000618a TIE1; conditions: at 10 µM
Chain of Tyrosine-protein kinase receptor Tie-1 (Homo sapiens) (P35590 whole entry): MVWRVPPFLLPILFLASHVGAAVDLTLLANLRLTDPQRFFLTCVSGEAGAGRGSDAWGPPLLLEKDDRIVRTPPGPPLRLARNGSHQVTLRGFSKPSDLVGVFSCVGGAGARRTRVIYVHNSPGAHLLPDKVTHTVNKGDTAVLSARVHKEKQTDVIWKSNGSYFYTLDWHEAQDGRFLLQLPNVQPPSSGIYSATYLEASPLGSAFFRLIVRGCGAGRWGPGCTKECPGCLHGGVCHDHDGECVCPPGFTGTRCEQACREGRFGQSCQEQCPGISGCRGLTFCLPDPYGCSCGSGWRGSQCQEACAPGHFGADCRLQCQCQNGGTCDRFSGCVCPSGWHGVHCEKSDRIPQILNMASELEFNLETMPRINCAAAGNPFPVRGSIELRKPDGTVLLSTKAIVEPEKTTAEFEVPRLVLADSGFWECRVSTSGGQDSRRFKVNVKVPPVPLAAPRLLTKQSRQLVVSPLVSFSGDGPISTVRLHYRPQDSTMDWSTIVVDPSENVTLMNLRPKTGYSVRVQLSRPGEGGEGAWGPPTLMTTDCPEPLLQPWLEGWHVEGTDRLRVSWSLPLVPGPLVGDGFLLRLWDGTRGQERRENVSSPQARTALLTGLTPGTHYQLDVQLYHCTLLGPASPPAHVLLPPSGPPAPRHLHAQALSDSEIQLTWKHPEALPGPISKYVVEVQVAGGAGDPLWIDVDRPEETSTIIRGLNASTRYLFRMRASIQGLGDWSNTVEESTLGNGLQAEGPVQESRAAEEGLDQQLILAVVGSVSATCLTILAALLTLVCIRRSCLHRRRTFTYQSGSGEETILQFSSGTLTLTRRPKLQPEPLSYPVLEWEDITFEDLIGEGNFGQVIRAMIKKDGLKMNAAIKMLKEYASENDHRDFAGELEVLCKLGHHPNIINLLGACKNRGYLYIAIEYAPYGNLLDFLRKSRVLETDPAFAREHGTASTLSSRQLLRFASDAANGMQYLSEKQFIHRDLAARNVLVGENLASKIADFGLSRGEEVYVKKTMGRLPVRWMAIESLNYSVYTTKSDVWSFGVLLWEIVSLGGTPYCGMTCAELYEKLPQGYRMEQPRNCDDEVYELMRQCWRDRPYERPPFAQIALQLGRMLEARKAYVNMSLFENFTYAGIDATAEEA

[10] = biological target: Serine/threonine-protein kinase tousled-like 2 (Homo sapiens) (UniProt Q86UE8); experiment: Selectivity interaction (KinomeScan (DiscoverX)) EUB0000618a TLK2; conditions: at 10 µM
Chain of Serine/threonine-protein kinase tousled-like 2 (Homo sapiens) (Q86UE8 whole entry, looked up): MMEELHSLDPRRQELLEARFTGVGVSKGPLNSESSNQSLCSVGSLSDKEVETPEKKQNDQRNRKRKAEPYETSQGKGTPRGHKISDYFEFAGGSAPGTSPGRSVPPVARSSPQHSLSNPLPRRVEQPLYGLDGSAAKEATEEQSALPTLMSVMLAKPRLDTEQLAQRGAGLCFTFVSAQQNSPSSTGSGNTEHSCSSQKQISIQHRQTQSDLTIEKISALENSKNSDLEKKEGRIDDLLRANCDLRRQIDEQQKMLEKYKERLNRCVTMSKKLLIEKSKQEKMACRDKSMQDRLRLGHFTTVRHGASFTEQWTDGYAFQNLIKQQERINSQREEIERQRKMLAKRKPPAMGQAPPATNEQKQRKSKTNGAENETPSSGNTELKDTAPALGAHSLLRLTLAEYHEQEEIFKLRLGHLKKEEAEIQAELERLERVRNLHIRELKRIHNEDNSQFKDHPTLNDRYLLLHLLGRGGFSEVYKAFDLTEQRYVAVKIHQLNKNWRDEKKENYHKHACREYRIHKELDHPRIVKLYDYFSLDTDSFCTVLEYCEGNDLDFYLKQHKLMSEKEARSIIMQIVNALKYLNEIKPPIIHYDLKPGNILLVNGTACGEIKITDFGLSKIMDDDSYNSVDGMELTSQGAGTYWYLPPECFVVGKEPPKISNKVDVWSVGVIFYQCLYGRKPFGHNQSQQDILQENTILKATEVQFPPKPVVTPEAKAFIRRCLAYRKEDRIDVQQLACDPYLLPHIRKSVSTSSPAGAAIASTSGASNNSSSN

[11] = biological target: Protein kinase C delta type (Homo sapiens) (UniProt Q05655); conditions: at 10 µM
Chain of Protein kinase C delta type (Homo sapiens) (Q05655 whole entry, looked up): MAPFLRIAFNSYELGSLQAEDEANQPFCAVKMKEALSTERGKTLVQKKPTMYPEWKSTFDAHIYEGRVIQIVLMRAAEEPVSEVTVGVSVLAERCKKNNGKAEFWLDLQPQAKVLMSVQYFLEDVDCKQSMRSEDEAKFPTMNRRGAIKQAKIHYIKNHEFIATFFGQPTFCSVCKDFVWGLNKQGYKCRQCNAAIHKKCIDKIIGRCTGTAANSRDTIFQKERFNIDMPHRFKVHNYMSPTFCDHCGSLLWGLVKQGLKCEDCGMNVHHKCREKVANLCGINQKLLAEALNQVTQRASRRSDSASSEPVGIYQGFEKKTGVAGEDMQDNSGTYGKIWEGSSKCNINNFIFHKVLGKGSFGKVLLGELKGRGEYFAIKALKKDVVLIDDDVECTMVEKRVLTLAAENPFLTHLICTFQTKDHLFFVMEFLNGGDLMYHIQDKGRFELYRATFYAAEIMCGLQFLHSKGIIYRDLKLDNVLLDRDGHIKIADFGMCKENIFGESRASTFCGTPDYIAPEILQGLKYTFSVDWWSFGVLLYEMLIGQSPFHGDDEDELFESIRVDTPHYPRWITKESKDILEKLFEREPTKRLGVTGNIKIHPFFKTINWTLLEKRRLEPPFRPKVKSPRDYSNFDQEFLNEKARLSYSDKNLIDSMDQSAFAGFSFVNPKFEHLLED

[12] = biological target: T4, Serine/threonine-protein kinase BRSK2 (Homo sapiens) (UniProt Q8IWQ3); experiment: Selectivity interaction (KinomeScan (DiscoverX)) EUB0000092b BRSK2; conditions: at 10 µM
T4 sequence (whole entry): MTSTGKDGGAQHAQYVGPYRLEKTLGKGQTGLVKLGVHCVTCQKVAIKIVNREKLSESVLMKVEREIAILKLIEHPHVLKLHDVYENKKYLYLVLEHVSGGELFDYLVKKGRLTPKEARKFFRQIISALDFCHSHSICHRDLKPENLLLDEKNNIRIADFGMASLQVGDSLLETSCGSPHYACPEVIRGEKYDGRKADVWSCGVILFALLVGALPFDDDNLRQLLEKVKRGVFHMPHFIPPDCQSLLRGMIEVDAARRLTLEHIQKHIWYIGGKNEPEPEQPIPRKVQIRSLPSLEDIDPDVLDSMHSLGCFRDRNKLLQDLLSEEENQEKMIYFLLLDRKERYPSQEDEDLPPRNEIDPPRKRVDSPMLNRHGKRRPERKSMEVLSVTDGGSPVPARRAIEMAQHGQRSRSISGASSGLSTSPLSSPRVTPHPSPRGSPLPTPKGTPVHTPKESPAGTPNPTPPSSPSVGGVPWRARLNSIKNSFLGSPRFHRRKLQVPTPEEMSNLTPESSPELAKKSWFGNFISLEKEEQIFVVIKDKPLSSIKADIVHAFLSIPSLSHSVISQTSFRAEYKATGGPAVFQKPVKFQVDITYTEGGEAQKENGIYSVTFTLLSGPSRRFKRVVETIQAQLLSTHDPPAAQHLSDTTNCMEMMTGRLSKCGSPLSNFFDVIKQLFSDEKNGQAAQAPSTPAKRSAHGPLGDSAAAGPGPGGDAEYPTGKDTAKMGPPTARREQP

Chain of Bromodomain-containing protein 9 (Homo sapiens) (Q9H8M2 whole entry): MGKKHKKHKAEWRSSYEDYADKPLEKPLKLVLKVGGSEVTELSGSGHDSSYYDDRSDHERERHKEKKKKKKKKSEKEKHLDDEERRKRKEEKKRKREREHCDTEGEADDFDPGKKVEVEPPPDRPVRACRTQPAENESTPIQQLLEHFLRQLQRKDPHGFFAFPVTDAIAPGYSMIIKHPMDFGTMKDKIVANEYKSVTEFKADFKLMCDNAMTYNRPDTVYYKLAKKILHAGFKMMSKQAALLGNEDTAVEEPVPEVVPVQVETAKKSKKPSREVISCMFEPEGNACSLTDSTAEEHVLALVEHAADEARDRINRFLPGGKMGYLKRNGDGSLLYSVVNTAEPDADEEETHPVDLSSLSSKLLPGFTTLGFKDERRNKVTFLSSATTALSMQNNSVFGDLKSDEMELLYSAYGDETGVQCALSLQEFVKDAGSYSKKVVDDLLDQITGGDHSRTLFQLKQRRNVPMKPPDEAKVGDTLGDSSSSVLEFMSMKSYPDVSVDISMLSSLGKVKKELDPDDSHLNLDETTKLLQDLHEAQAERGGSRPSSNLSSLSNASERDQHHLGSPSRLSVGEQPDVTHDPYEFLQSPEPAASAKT

## CN(C)CCCOc1ccc(-c2cc(NCCCn3cccn3)nc(S(C)(=O)=O)n2)cc1
[1]
  dTM: 4 K
[2]
  dTM: 4.8 K

## COc1cc(N(C)c2ccnc3ccc(C(F)(F)F)cc23)cc(OC)c1OC
[3]
  % binding: 94%

## COCC(=O)NC/C=C/c1ccc2ncnc(Nc3ccc(Oc4ccc(C)nc4)c(C)c3)c2c1 [CP-724714]
[4]
  % of control: 74%

## CN(C(=O)c1cnn2cccnc12)c1cc2c(cc1N1CCOCC1)C(=O)N(C[C@@H](F)C(C)(C)O)C2
[5]
  dTM: -0.4 K

## C=CC(=O)Nc1cccc(C(=O)Nc2ccc(Nc3cc(-c4[nH]c(SC)nc4C)ccn3)cc2)c1
[6]
  % of control: 67%

## N#Cc1cccc(-c2c[nH]c3ncnc(N4CCOCC4)c23)c1
[7]
  % of control: 71%

## COCCN1CCC(c2cc(CN(C)C(=O)c3cccc(Oc4ccccc4)c3)ccn2)CC1
[8]; at 1 µM
  % activity: > 95%
[8]; at 10 µM
  % activity: > 85%

## O[C@H]1CC[C@H](Nc2ncc3nc(Nc4c(F)cc(F)cc4F)n([C@H]4CCOC4)c3n2)CC1
[9]
  % of control: 100%
[10]
  % of control: 99%

## CCN(CC)CCCCNc1ncc2cc(-c3cc(OC)cc(OC)c3)c(NC(=O)NC(C)(C)C)nc2n1
[11]
  % of control: 100%

## CCC(=O)N1CCN(c2ccc(-n3c(=O)ccc4cnc5ccc(-c6cnc7ccccc7c6)cc5c43)cc2C(F)(F)F)CC1
[12]
  % of control: 76%

From ChEMBL document CHEMBL5465560, “Selectivity Literature for EUbOPEN Chemogenomic Library” (2024)
